The results in this text go back to patent US10836789B2, “Inhibitors of glucocorticoid receptor” (ORIC Pharmaceuticals, Inc., priority 2016, dated 2020).

In general, IC50 refers to the concentration at which inhibition is half-maximal.

The structures appear in SMILES notation.

Assay [1] deals with T1, GR (Homo sapiens, UniProt P04150).
T1 construct: expressed in transfected cells; host or cells: CHO cells carrying GR and an MMTV-luciferase reporter
T1 sequence (P04150 1-777): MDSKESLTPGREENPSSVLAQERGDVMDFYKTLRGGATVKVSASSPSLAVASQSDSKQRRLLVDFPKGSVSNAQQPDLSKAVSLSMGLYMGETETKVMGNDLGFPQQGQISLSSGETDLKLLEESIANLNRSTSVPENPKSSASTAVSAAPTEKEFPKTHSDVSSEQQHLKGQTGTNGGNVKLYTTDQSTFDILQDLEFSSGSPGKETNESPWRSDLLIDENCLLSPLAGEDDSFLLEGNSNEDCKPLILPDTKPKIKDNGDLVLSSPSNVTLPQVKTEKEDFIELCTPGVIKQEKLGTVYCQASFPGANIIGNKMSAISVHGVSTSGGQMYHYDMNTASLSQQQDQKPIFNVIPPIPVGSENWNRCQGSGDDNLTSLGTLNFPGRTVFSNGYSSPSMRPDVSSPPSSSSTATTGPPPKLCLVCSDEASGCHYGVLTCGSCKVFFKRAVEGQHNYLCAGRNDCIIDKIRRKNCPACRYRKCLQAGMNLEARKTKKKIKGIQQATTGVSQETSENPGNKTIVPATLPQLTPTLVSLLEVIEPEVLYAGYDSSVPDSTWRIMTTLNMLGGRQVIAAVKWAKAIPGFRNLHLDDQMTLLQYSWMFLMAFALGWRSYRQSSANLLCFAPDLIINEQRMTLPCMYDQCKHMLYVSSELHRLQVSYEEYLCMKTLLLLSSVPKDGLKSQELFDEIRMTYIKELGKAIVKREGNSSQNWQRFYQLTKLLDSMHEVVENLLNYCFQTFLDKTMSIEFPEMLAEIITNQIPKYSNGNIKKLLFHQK
Description: GR luciferase antagonist assay (CHO/GR/MMTV Luciferase cells). As to conditions: 10 nM Dexamethasone final, 16-18 h. In kind it is cell-based. As for the experimental part: Example A: […] GR Luciferase Assay Cell Line: CHO/GR/MMTV Luciferase Culture Media: DMEM (with phenol red)+10% FBS Assay Media: DMEM (without phenol red)+10% CSS A 1×10 cm plate of cells was split into 2×15 cm plates in Assay Media (CSS). After 4 days, the cells in the Assay Media were collected and counted. Antagonist Assay: 1.5×10^4 cells per well were plated in a 384-well white walled TC plate in 20 ul of Assay Media containing 12.5 nM Dexamethasone (final concentration=10 nM). The plates were covered with film to avoid evaporation and placed in a TC incubator. Media/drug dilutions were prepared in Assay Media in 96-well sterile plates. 100 ul of Assay Media was distributed in aliquots into 96-well plates with an 8-Channel pipette (20-200 ul). 0.5 ul of 1000× concentration of compounds were added to the plates with 8-Channel pipette (0.5-10 ul). The plates were shaken for 15 seconds to mix. The film was removed from the 384-well plates with assay cells. 5 ul of media/drug dilutions were added to appropriate wells. The plates were covered with film to avoid evaporation and placed in a TC incubator overnight. After 16-18 h in the incubator, the plates were removed and sat at room temperature for 10 minutes to equilibrate. The Reagent Dispenser was setup to distribute 25 ul aliquots of OneGlo Luciferase Reagent (at room temperature) to each well of the 384-well plate using standard cassette. After OneGlo was added to the plates, the plates were shaken briefly, then incubated in the dark at room temperature for about 3 minutes. The plates were read using a Tecan or Promega luminometer. The ability of the compounds disclosed herein to inhibit GR activity was quantified and the respective IC50 value was determined. Table 3 provides the cellular IC50 values of various substituted steroidal compounds disclosed herein.

Assay [2] relates to AR. The assay can be described thus: AR agonism assay in LNAR reporter cell line. In kind it is cell-based. The note with it: for Relative Maximum Response to Mifepristone: LNAR cells (overexpressed AR, 4XARE-Luc), 10% CSS, 18-24 hrs, Mifepristone maximum response set to 1. As to the method:
Example B: In Vitro AR Agonism Assay
The AR agonism assay was done in the LNAR reporter cell line which has overexpressed AR and 4XARE-Luc genes. This cell line is sensitive to even minor partial AR agonism activity in hormone-deprived media (CSS). The assays were done in RPMI (without phenol red)+10% CSS using 6000 LNAR cells/well in 384-well plates and compounds were incubated with cells in […] incubator for 18-24 hrs. OneGlo reagent (25 uL/well) was added and plates were read with luminometer within 3 minutes.
To gauge the AR partial agonism activity, Mifepristone is included as a standard in the assay. AR agonism assay results are quantified by determining the ratio of the maximum response of individual compounds to the maximum response of Mifepristone (arbitrarily set to 1). Values of Table 4 are reported as Relative Maximum Response to Mifepristone. This general trend of AR agonism was shown for the class of compounds described herein.

In the case of `CCC(C)(C)C#C[C@]1(O)CC[C@H]2[C@@H]3CCC4=CC(=O)CC[C@@H]4[C@H]3[C@@H](c3ccc(N(C)C)cc3)C[C@@]21C` [Compound 6, (8R,9S,10R,11S,13S,14S,17S)-11-(4-(Dimethylamino)phenyl)-17-(3,3-dimethylpent-1-yn-1-yl)-17-hydroxy-13-methyl-1,2,6,7,8,9,10,11,12,13,14,15,16,17-tetradecahydro-3H-cyclopenta[a]phenanthren-3-one], the IC50 in assay [1] is at most 100 nM. Also, the “Relative Maximum Response to Mifepristone” value (from here on “Relative Maximum Response”) in assay [2] was “A (A: ≤ 0.4)”.
`CC#C[C@]1(O)CC[C@H]2[C@@H]3CCC4=CC(=O)CCC4=C3[C@@H](c3ccc(N(C)C)cc3)C[C@@]21C` [Mifepristone, reference compound]: the “partial AR agonism” value in assay [2] (in concentrations as low as 10 nM) is on record as “strong partial AR agonism”.
`CC#C[C@]1(O)CC[C@H]2[C@@H]3CCC4=CC(=O)CC[C@]4(C)[C@H]3[C@@H](c3ccc(N(C)C(C)C)cc3)C[C@@]21C` [Compound 19] gave an IC50 in assay [1] above 100 nM. Besides, the “Relative Maximum Response” value in assay [2] is listed as “A (A: ≤ 0.4)”.
As to `CN(c1ccc([C@H]2C[C@@]3(C)[C@@H](CC[C@@]3(O)C#CC(C)(C)C)[C@@H]3CCC4=CC(=O)CC[C@@H]4[C@H]32)cc1)C(C)(C)C` [Compound 11, (8R,9S,10R,11S,13S,14S,17S)-11-(4-(tert-Butyl(methyl)amino)phenyl)-17-(3,3-dimethylbut-1-yn-1-yl)-17-hydroxy-13-methyl-1,2,6,7,8,9,10,11,12,13,14,15,16,17-tetradecahydro-3H-cyclopenta[a]phenanthren-3-one], the IC50 in assay [1] was at most 100 nM. The “Relative Maximum Response” value in assay [2] is on record as “A (A: ≤ 0.4)”.
On to `CC(C)N(C)c1ccc([C@H]2C[C@@]3(C)[C@@H](CC(C)[C@@]3(O)C#CC(C)(C)C)[C@@H]3CCC4=CC(=O)CC[C@@H]4[C@H]32)cc1` (single isomer, unassigned) [Compound 8], for which, in assay [1], the IC50 was at most 100 nM. Also, the “Relative Maximum Response” value in assay [2] is given as “A (A: ≤ 0.4)”.
As for `COC(C)(C)C#C[C@]1(O)CC[C@H]2[C@@H]3CCC4=CC(=O)CC[C@@H]4[C@H]3[C@@H](c3ccc(N(C)C(C)C)cc3)C[C@@]21C` [Compound 4, (8R,9S,10R,11S,13S,14S,17S)-17-Hydroxy-11-(4-(isopropyl(methyl)amino)phenyl)-17-(3-methoxy-3-methylbut-1-yn-1-yl)-13-methyl-1,2,6,7,8,9,10,11,12,13,14,15,16,17-tetradecahydro-3H-cyclopenta[a]phenanthren-3-one], the IC50 in assay [1] was at most 100 nM. Besides, in assay [2], the “Relative Maximum Response” value was “A (A: ≤ 0.4)”.
For the compound `COCC#C[C@]1(O)CC[C@H]2[C@@H]3CCC4=CC(=O)CC[C@]4(C)[C@H]3[C@@H](c3ccc(N(C)C)cc3)C[C@@]21C` [Compound 17, (8S,9R,10R,11S,13S,14S,17S)-11-(4-(Dimethylamino)phenyl)-17-hydroxy-17-(3-methoxyprop-1-yn-1-yl)-10,13-dimethyl-1,2,6,7,8,9,10,11,12,13,14,15,16,17-tetradecahydro-3H-cyclopenta[a]phenanthren-3-one], the IC50 in assay [1] was above 100 nM. Moreover, the “Relative Maximum Response” value in assay [2] is listed as “A (A: ≤ 0.4)”.
Compound `CC(C)(C)C#C[C@]1(O)CC[C@H]2[C@@H]3CCC4=CC(=O)CC[C@@H]4[C@H]3[C@@H](c3ccc(N4CCN(C(=O)OC(C)(C)C)CC4)cc3)C[C@@]21C` [Compound 25] yielded an IC50 in assay [1] of at most 100 nM. Further, the “Relative Maximum Response” value in assay [2] is recorded as “A (A: ≤ 0.4)”.
The corresponding values for `CC(C)Nc1ccc([C@H]2C[C@@]3(C)[C@@H](CC[C@@]3(O)C#CC3CC3)[C@@H]3CCC4=CC(=O)CC[C@]4(C)[C@H]32)cc1` [Compound 18] are at most 100 nM and “A (A: ≤ 0.4)”.
`CC#C[C@]1(O)CC[C@H]2[C@@H]3CCC4=CC(=O)CC[C@]4(C)[C@H]3[C@@H](c3ccc(N(C)C)c(F)c3)C[C@@]21C` [Compound 32]: the IC50 in assay [1] was above 100 nM. Also, the “Relative Maximum Response” value in assay [2] is “A (A: ≤ 0.4)”.
Compound `CC(C)(C)C#C[C@]1(O)CC[C@H]2[C@@H]3CCC4=CC(=O)CC[C@@H]4[C@H]3[C@@H](c3ccc(N4CCS(=O)(=O)CC4)cc3)C[C@@]21C` [Compound 22] yielded an IC50 in assay [1] of at most 100 nM. In assay [2], the “Relative Maximum Response” value was “A (A: ≤ 0.4)”.
In the case of `CC(C)(C)C#C[C@]1(O)CC[C@H]2[C@@H]3CCC4=CC(=O)CC[C@@H]4[C@H]3[C@@H](c3ccc(N4CCOCC4)cc3)C[C@@]21C` [Compound 7, (8R,9S,10R,11S,13S,14S,17S)-17-(3,3-Dimethylbut-1-yn-1-yl)-17-hydroxy-13-methyl-11-(4-morpholinophenyl)-1,2,6,7,8,9,10,11,12,13,14,15,16,17-tetradecahydro-3H-cyclopenta[a]phenanthren-3-one], the IC50 in assay [1] was at most 100 nM. The “Relative Maximum Response” value in assay [2] is on record as “A (A: ≤ 0.4)”.
For `CN1CCN(c2ccc([C@H]3C[C@@]4(C)[C@@H](CC[C@@]4(O)C#CC(C)(C)C)[C@@H]4CCC5=CC(=O)CC[C@@H]5[C@H]43)cc2)CC1` [Compound 20], in assay [1], the half-inhibitory concentration (IC50) is at most 100 nM. The “Relative Maximum Response” value in assay [2] is “A (A: ≤ 0.4)”.
In assay [1], `C[C@]12CCC(=O)C=C1CC[C@@H]1[C@@H]2[C@@H](c2ccc(N3CCCC3)cc2)C[C@@]2(C)[C@H]1CC[C@@]2(O)C#CC1CC1` [Compound 28] registered an IC50 above 100 nM.
Regarding `C[C@]12CCC(=O)C=C1CC[C@@H]1[C@@H]2[C@@H](c2ccc(N3CCCC3)cc2)C[C@@]2(C)[C@H]1CC[C@@]2(O)C#CC(F)(F)F` [Compound 29], the IC50 in assay [1] was at most 100 nM.
In the case of `CC(C)(C)C#C[C@]1(O)CC[C@H]2[C@@H]3CCC4=CC(=O)CC[C@@H]4[C@H]3[C@@H](c3ccc4c(c3)OCCO4)C[C@@]21C` [Compound 3, (8R,9S,10R,11S,13S,14S,17S)-11-(2,3-Dihydrobenzo[b][1,4]dioxin-6-yl)-17-(3,3-dimethylbut-1-yn-1-yl)-17-hydroxy-13-methyl-1,2,6,7,8,9,10,11,12,13,14,15,16,17-tetradecahydro-3H-cyclopenta[a]phenanthren-3-one], the IC50 in assay [1] was at most 100 nM.
Consider `CC(C)(C)C#C[C@]1(O)CC[C@H]2[C@@H]3CCC4=CC(=O)CC[C@@H]4[C@H]3[C@@H](c3ccc(N4CCN(S(C)(=O)=O)CC4)cc3)C[C@@]21C` [Compound 27], for which the IC50 in assay [1] was at most 100 nM.
`CCC#C[C@]1(O)CC[C@H]2[C@@H]3CCC4=CC(=O)CC[C@]4(C)[C@H]3[C@@H](c3ccc(NC)cc3)C[C@@]21C` [Compound 12] gave an IC50 in assay [1] above 100 nM.
Same read-out and setting: with `CC#C[C@]1(O)CC[C@H]2[C@@H]3CCC4=CC(=O)CC[C@]4(C)[C@H]3[C@@H](c3ccc(NC)cc3)C[C@@]21C` [Compound 23] the figure was above 100 nM.
